# Assay results reported in patent US6740673B2, “Quarternary ammonium compounds” (UCB Farchim SA, priority 1998, dated 2004).
# Tested on: cough responses induced by citric acid (1M) aerosol in conscious guinea-pigs
# Test: Antitussive activity against citric acid aerosol-induced cough in conscious guinea-pigs
# Format: in vivo, guinea-pig (male albino Dunkin-Hartley)
# Details: aerosol pre-treatment at 10.0 mg/ml immediately before citric acid (1M) exposure; for inhibition of cough responses compared with vehicle: vs vehicle (distilled water), 15 minute observation period
# Source text: The following method was one of the general methods available to determine the antitussive activity of the compounds of the present invention.
# Male albino Dunkin-Hartley strain guinea-pigs (weight 300-400 g) were supplied by Harlan UK Ltd., Bicester, Oxon, UK.
# The method used was modified from that described by Adcock J. J., Schneider C. and Smith T. W., “Effects of Morphine and a Novel Opioid Pentapeptide BW443C, on Cough, Nociception and Ventilation in the Unanaesthetized Guinea-pig”, Br. J. Pharmacol., 93, 93-100 (1988). Individual conscious guinea-pigs were placed unrestrained into a sealed purpose built perspex exposure chamber (3,000 cm^3 volume) and allowed to acclimatize prior to aerosol administration.
# Cylinder air was introduced into the exposure chamber at a flow rate of 1 liter/min, maintained by a needle valve and monitored by a rotameter. From the rotameter the air passed through the cup of an ultrasonic nebulizer (DeVilbis UltraNeb 2000) which was used to generate aerosols of drug or citric acid at 0.15 ml/min. A Fleisch pneumotachograph, connected to a differential pressure transducer (Grass model PT5) was attached to the outflow from the exposure chamber and provided a measurement of airflow from the chamber. […]
# Cough responses were induced by exposure to an aerosol of citric acid (1M) for 10 minutes. Animals were continuously monitored by trained observer, and the number of coughs were counted during a 15 minute period from commencement of the citric acid aerosol administration. […]
# The three types of response were differentiated primarily by sound and visual observation. […] Data recorded for individual guinea-pigs on the Poh-Ne-Mah system was stored on an optical disk. Each cough was marked on the Grass polygraph paper trace, and from these record numbers, frequency and time of onset of coughs were determined. […]
# Quantities of drugs were weighed out and dissolved in a vehicle. […] The sequence of pre-treatment administration was determined according to a 4×4 Latin Square design. […]
SMILES,prolongation of mean latency of cough onset (time to first recorded cough) [fold],inhibition of cough responses compared with vehicle [%]
"CC[N+](CC)(CC)CC(=O)N1CCc2ccccc21 [Compound 3, N-[(1-Indolinyl)carbonylmethyl]triethylammonium chloride]",2.5,36
"C[N+](C)(CC(=O)Nc1ccccc1)CC(=O)N1CCc2ccccc21.[Cl-] [Compound 2, N-[(1-Indolinyl)carbonylmethyl]-N-(phenylcarbamoylmethyl) dimethylammonium chloride]",,56
